Patent US20250084097A1, “MACROCYCLIC AMIDE COMPOUNDS AND APPLICATION THEREOF” (Medshine Discovery Inc., priority 2021, published 2025)

What was measured:
[1] = target: T1, EGFR (L858R/T790M/C797S) (Homo sapiens, UniProt P00533, C797S/L858R/T790M); test: Kinase inhibitory activity, 33P-ATP filtration-binding (Reaction Biology Corp.); assay type: biochemical; settings: ATP 100 μM; read-out: Kinase half-maximal inhibition concentration IC50 EGFR(L858R/T790M/C797S)
T1 construct: Reaction Biology Corp. (assay performed there)
T1 sequence (P00533 25-1210 T790M/C797S/L858R): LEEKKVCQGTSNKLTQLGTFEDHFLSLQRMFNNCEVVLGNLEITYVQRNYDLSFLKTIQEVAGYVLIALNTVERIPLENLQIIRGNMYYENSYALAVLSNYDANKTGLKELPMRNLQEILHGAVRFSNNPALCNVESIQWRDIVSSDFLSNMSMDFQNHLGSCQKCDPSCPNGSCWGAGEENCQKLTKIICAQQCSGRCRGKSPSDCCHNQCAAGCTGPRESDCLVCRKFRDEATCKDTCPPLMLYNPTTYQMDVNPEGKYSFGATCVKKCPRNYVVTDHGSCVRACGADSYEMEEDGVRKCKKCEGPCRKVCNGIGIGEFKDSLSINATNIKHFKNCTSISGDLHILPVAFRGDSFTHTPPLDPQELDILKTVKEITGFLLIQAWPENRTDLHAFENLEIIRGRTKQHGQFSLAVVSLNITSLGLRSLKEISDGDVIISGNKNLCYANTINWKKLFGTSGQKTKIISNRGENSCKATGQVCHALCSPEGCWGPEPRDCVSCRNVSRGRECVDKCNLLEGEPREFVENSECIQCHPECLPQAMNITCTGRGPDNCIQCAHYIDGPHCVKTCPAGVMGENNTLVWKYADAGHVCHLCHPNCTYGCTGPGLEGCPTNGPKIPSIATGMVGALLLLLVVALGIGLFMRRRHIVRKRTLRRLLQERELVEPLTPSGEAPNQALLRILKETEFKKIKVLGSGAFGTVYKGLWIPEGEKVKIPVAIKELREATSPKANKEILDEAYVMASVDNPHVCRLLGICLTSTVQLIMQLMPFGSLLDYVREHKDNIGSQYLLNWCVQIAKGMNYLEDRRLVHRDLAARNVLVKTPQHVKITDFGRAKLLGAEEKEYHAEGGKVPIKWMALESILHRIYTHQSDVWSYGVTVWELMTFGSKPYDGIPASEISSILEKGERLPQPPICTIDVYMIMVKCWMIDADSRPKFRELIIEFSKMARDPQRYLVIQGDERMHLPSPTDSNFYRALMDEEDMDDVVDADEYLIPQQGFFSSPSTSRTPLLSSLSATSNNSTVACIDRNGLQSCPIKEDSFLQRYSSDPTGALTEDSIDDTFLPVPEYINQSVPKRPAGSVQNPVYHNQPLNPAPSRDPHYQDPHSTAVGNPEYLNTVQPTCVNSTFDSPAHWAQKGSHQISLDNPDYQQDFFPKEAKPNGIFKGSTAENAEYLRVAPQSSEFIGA
Procedure: (§1) Compound assay for kinase inhibitory activity against EGFR (L858R/T790M/C797S), EGFR (del19-E746-A750/T790M/C797S), and EGFR (WT) was done at Reaction Biology Corp. In reaction buffer (20 mM Hepes (pH 7.5), 10 mM magnesium chloride (MgCl2), 1 mM ethylenebis(oxyethylenenitrilo)tetraacetic acid (EGTA), 0.02% polyethylene glycol monododecyl ether (Brij35), 0.02 mg/ml BSA, 0.1 mM sodium vanadate (Na3VO4), 2 mM dithiothreitol (DTT), 1% DMSO), a certain concentration of substances, coenzyme factors, kinases and test compounds (10 doses, 3-fold serial dilutions, 2% DMSO final concentration) were added in sequence, and mixed well. The mixture was incubated at room temperature for 20 minutes. A certain concentration of ^33P-ATP was added to the reaction mixture to initiate reaction, followed by incubation at room temperature for 120 minutes. Finally, the radioactivity of the reactants was detected by filtration-binding method. The final kinase activity was expressed as the ratio of the remaining kinase activity of the test sample to the kinase activity of the DMSO control group. The dose-response relationship curve was fitted and IC50 was calculated using GraphPad software.

[2] = target: T2, EGFR (WT) (Homo sapiens, UniProt P00533); test: as above; assay type: biochemical; settings: ATP 100 μM; read-out: Kinase half-maximal inhibition concentration IC50 EGFR(WT)
T2 construct: Reaction Biology Corp. (assay performed there)
T2 sequence (P00533 25-1210): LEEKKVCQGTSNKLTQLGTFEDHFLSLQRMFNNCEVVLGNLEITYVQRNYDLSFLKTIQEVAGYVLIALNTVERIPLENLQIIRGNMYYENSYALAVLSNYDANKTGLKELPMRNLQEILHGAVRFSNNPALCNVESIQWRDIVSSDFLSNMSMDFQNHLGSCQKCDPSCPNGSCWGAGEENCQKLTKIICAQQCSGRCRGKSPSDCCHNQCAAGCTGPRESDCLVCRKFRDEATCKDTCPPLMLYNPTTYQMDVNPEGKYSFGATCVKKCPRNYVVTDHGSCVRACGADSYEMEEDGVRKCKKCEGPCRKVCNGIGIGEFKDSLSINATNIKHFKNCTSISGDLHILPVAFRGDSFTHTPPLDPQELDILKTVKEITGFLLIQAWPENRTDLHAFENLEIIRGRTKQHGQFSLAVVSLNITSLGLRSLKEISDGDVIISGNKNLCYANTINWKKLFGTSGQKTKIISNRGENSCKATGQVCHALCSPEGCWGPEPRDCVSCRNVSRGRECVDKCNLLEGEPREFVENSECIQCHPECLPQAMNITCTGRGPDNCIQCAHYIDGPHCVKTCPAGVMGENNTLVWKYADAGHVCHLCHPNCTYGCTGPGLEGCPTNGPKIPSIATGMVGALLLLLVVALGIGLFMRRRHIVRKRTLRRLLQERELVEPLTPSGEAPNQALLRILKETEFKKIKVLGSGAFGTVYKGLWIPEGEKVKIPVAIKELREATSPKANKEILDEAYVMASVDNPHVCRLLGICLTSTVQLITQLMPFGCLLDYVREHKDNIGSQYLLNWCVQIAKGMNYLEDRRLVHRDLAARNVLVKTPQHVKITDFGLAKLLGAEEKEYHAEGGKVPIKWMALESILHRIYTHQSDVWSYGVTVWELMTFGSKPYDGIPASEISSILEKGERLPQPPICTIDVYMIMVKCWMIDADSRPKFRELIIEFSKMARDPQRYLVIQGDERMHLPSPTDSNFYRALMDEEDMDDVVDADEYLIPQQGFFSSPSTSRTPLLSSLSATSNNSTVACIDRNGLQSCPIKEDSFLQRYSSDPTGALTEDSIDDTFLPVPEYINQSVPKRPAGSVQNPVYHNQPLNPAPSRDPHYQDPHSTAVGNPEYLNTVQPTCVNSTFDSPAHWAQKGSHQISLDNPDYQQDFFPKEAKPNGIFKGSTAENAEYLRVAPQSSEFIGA
Procedure: as §1

[3] = target: T3, EGFR (del19-E746-A750/T790M/C797S) (Homo sapiens, UniProt P00533, C797S/DEL746-750/T790M); test: as above; assay type: biochemical; settings: ATP 100 μM; read-out: Kinase half-maximal inhibition concentration IC50 EGFR(del19-E746-A750/T790M/C797S)
T3 construct: Reaction Biology Corp. (assay performed there)
T3 sequence (P00533 with tags, fused parts or gaps DEL746-750/T790M/C797S): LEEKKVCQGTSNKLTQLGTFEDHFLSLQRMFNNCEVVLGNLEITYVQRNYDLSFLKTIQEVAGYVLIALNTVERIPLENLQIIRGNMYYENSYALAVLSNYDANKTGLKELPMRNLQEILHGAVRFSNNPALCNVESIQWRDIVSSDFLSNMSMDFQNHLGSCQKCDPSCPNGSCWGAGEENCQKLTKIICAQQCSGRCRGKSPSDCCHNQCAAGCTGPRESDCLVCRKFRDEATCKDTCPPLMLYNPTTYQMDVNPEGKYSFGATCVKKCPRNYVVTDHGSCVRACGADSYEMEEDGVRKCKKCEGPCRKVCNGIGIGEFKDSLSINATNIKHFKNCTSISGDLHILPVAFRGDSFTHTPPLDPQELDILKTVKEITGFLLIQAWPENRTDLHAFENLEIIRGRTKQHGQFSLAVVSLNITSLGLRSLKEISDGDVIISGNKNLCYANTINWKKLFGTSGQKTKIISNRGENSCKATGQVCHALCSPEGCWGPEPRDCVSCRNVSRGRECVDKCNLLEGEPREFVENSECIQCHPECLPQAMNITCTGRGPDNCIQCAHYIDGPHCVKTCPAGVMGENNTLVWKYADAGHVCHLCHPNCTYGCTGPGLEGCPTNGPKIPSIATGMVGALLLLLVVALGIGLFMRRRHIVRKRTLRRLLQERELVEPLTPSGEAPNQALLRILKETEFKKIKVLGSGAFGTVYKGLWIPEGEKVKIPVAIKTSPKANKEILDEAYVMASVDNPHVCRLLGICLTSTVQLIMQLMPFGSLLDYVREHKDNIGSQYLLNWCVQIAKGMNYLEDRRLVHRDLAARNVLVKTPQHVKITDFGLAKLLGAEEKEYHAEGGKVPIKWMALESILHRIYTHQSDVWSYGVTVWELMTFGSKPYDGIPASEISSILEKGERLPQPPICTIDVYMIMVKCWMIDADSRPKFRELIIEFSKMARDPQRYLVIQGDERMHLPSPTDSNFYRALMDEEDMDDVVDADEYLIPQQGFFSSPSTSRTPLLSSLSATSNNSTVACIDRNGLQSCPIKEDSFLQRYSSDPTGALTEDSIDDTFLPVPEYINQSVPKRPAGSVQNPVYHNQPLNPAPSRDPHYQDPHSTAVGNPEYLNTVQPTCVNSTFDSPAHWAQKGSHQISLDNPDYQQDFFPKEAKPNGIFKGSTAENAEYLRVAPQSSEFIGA
Procedure: as §1

[4] = target: T4, CYP2C9 (Homo sapiens, UniProt P11712); test: Cytochrome P450 isoenzyme inhibition, human liver microsomes; assay type: in vitro ADME; settings: read-out: Cytochrome P450 isoenzyme inhibitory concentration CYP2C9
T4 construct: from tissue; host or cells: human liver microsomes
T4 sequence (P11712 whole entry): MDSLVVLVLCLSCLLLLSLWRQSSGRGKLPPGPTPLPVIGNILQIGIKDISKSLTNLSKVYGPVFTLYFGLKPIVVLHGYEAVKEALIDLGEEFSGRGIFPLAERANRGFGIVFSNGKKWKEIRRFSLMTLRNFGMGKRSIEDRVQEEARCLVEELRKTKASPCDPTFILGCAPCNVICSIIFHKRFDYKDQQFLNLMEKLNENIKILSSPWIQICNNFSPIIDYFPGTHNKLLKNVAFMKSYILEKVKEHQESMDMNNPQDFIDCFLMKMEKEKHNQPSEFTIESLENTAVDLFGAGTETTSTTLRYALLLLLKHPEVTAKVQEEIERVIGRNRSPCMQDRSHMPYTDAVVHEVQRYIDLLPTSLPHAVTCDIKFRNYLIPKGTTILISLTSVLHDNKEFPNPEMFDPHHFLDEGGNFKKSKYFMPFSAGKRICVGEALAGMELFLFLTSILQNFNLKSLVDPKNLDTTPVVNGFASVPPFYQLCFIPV
Procedure: (§2) The purpose of this study was to determine the inhibitory effect of test compounds on the activity of human liver microsomal cytochrome P450 isoenzymes (CYP1A2, CYP2C9, CYP2C19, CYP2D6 and CYP3A4).
(§3) Working solutions (100×final concentration) with concentrations of 5.00, 1.50, 0.500, 0.150, 0.0500, 0.0150, and 0.00500 mM were prepared by gradient dilution of the test compound (10.0 mM), while working solutions of each positive inhibitor and its specific substrate mixtures of P450 isozymes (CYP1A2, CYP2C9, CYP2C19, CYP2D6, and CYP3A4) were prepared; human liver microsomes stored in a refrigerator below −60° C. were thawed on ice; after all the human liver microsomes were thawed, the human liver microsomes were diluted with Potassium phosphate buffer (PB) to prepare a certain concentration of working solution (0.253 mg/ml).
(§4) First, 20.0 μL of the substrate mixture was added to a reaction plate (20.0 μL of PB was added to the Blank well), then 158 μL of human liver microsomal working solution was added to the reaction plate, and the reaction plate was placed on ice for use; at this time, 2.00 μL of each concentration of the test compound (N=1) and specific inhibitor (N=2) were added to the corresponding wells, and to the group without inhibitor (test compound or positive inhibitor) was added the corresponding organic solvent as control samples (1:1 DMSO:MeOH for the control sample of the test compound, and 1:9 DMSO:MeOH for all the positive control samples); after pre-incubation in a water bath at 37° C. for 10 min, 20.0 μL of cofactor (NADPH) solution was added to the reaction plate, and the reaction plate was incubated in a water bath at 37° C. for 10 min; The reaction was terminated by adding 400 μL of pre-cooled acetonitrile solution (containing 200 ng/mL Tolbutamide and Labetalol internal standard); the reaction plate was shaken on a shaker for 10 min; then centrifuged at 4000 rpm at 4° C. for 20 min; 200 μL of the supernatant was added to 100 μL of water to dilute the samples; and the plate was sealed, shaken for 10 min to mix well, and then analyzed by LC/MS/MS.
(§5) The rate of production of metabolites of each probe substrate was used to reflect the activity of each CYP isozyme. The activity of each isozyme in the solvent control incubation system without test article or positive inhibitor was set to be 100%, and the rate of production of metabolites of the probe substrate with different concentrations of test article or positive inhibitor was divided by the rate of production of metabolites of the solvent control samples, and then multiplied by 100% as the percentage of residual activity of each isozyme. The IC50 values of the test article and each positive inhibitor were calculated by nonlinear regression analysis using three or four parameters in XL fit software with the percentage of residual activity as the vertical coordinate and the inhibitor concentration as the horizontal coordinate. The IC50 values were labeled as “>50 μM” when the IC50 fitted by XL fit software was greater than the highest administered concentration (50 μM) or when the IC50 could not be fitted.

[5] = target: T5, CYP2D6 (Homo sapiens, UniProt P10635); test: as above; assay type: in vitro ADME; settings: read-out: Cytochrome P450 isoenzyme inhibitory concentration CYP2D6
T5 construct: from tissue; host or cells: human liver microsomes
T5 sequence (P10635 whole entry): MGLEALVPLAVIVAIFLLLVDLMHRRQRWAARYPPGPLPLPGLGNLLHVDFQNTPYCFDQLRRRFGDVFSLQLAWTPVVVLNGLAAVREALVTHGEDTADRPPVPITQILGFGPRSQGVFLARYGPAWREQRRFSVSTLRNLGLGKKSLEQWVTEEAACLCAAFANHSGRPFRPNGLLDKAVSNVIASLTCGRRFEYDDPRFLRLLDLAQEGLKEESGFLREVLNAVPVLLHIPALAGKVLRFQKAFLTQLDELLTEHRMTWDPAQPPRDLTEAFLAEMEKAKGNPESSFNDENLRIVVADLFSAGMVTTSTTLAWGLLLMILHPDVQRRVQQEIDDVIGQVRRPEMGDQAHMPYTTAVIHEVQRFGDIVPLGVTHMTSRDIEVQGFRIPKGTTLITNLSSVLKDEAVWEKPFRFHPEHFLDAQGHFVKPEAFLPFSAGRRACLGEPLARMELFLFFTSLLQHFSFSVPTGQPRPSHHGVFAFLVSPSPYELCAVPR
Procedure: as §2, §3, §4, §5

SMILES | IC50 [1] [nM] | IC50 [2] [nM] | IC50 [3] [nM] | IC50 [4] [nM] | IC50 [5] [nM]
Cc1cc2cc(n1)-c1cnn(C)c1OC[C@H]1CC[C@H](C1)CN1/C(=N/C2=O)Nc2ccc(N=S(C)(C)=O)cc21 (single isomer, unassigned) [WX-027A] | 1.82 | 55.8 | 0.093 | 14000 | > 50000
Cc1cc2cc(n1)-c1cnn(C)c1OCCC[C@@H](C)CN1/C(=N/C2=O)Nc2ccc(N=S(C)(C)=O)c(Cl)c21 [WX-019] | 3.55 | 212 | 0.139 | 31000 | > 50000
